Test results taken from patent US20130123206A1, “TREATMENT OF METABOLIC SYNDROME AND INSULIN RESISTANCE WITH CITRUS FLAVANONES” (priority 2010, published 2013).
Entries after “also recorded” stand apart in the source; their conditions may differ.

What was measured:
[1] = system: bovine aortic endothelial cells (BAEC); test: Evaluation of NO production in fixed cells (DAF-2 DA fluorescence); type: cell-based; conditions: for NO production in response to hesperetin after inhibitor pre-treatment: 10 min; for NO production in response to hesperetin after inhibitor pre-treatment / NO production in response to insulin after inhibitor pre-treatment: inhibitor added 30 min before DAF-2 DA loading; for NO production in response to insulin after inhibitor pre-treatment: insulin 100 nM, 5 min
Protocol: Bovine aortic endothelial cells (BAEC) in primary culture (Cell Applications, San Diego, Calif.) were grown in EBM (Endothelial Basal Medium) containing EGM-MV supplements (Endothelial Growth Medium-Micro Vascular; Cambrex, Walkersville, Md.) and used between passages 3 and 5 as previously described (Formoso et al., Mol Endocrinol, 20:1153-63, 2006). […] Biol. Chem. 282:13736-45, 2007; Formoso et al., Mol. Endocrinol. 20:1153-63, 2006). Briefly, BAECs were grown to 95% confluence in Lab-Tek™ chamber slides (Rochester, N.Y.) and then serum-starved overnight in phenol red-free EBM supplemented with L-arginine (100 μM). BAECs were loaded with DAF-2 DA (3 μM) for 20 minutes at 37° C. […] After loading with DAF-2 DA for 20 minutes, cells were washed with EBM at 37° C. and kept in the dark. Next, BAECs were treated with insulin (100 nM, 5 minutes), lysophosphatidic acid (LPA; 5 μM, 5 minutes), or hesperetin (10 μM, 10 minutes; Sigma). After treatment, cells were fixed in 4% paraformaldehyde (vol/vol) for 5 minutes at 4° C. Fixed cells were visualized using an Olympus IX81 inverted microscope with attached CCD camera (Retiga Exi, Burnaby, BC, Canada) using appropriate filters with a peak excitation wavelength of 480 nm and a peak emission wavelength of 510 nm. Images were captured using IPLab™ Software (Scanalytics, Inc., Fairfax, Va.).

[2] = system: bovine aortic endothelial cells (BAEC); test: Immunoblotting of phospho-AMPK, phospho-Akt, phospho-eNOS and phospho-Src in BAEC; type: cell-based
Protocol: Bovine aortic endothelial cells (BAEC) in primary culture (Cell Applications, San Diego, Calif.) were grown in EBM (Endothelial Basal Medium) containing EGM-MV supplements (Endothelial Growth Medium-Micro Vascular; Cambrex, Walkersville, Md.) and used between passages 3 and 5 as previously described (Formoso et al., Mol Endocrinol, 20:1153-63, 2006). BAECs were grown in 60 mm dishes, serum-starved overnight, and then treated with hesperetin (10 μM) for varying durations or for 10 minutes at different concentrations. In some experiments, Wortmannin (100 nM), or Compound C (5 μM) was added to cells 1 hour before treating with hesperetin. Cell lysates were prepared using 120 μl of lysis buffer (100 mM NaCl, 20 mM Hepes, pH 7.9, 1% Triton X-100, 1 mM Na3VO4, 4 mM sodium pyrophosphate, 10 mM EDTA, 1 mM phenylmethylsulfonyl fluoride, 10 mM NaF, and complete protease inhibitor cocktail (Roche Applied Sciences, Indianapolis, Ind.)). After centrifugation of samples at 17,000×g for 5 minutes at 4° C., supernatants were boiled with Laemmli sample buffer for 5 minutes and proteins (50 μg total protein) were resolved by 10% SDS-PAGE, transferred to nitrocellulose membranes, and immunoblotted using antibodies against eNOS (Transduction Laboratories), phospho-eNOS ([…]), Akt, phospho-Akt ([…]), AMPK, phospho-AMPK ([…]), Src ([…]) (Cell Signaling Technology), VCAM-1 (Santa Cruz, Calif.) or β-actin (Sigma) according to standard methods. Immunoblots were quantified by scanning densitometry (GE Healthcare).

[3] = system: bovine aortic endothelial cells (BAEC); test: Measurement of H2O2/ROS production (CM-H2DCF-DA fluorescence); type: cell-based; conditions: for production of ROS in BAEC: 10 μM, 10 minutes
Protocol: Briefly, BAECs were plated on chamber slides and incubated overnight in media free of phenol red, serum, and growth factors. Cells were then washed with Dulbecco's phosphate buffered saline containing calcium and magnesium (DPBS) before each experiment. Cells were loaded with CM-H2DCF-DA (5 μM, 20 minutes, 37° C.) and then washed to remove excess CM-H2DCF-DA. Cells were then treated with H2O2, hesperetin, or naringenin as indicated in the legends to figures followed by washing three times with DPBS. Some groups of cells were pre-treated with N-acetylcysteine (NAC) (10 mM, 2 hours). Cells were then visualized and images were captured as described for measurement of NO production.

[4] = system: U937 monocytes adhering to BAECs; test: Monocyte adhesion assay; type: cell-based, bovine; conditions: 5 hours
Protocol: BAECs were cultured in 6-well plates and then treated with TNF-α (10 ng/ml, 5 hours) or hesperetin (10 μM, 5 hours). In some experiments, hesperetin was added 1 hour before treating cells with TNF-α. U937 monocytes were grown in DMEM medium containing 10% FBS in a culture flask. U937 monocytes were labeled for 15 min with 5 μM calcein-AM (Molecular Probes, Inc.). Labeled U937 cells (6×10^5 cells) were then incubated for 30 minutes at 37° C. with confluent BAECs pre-treated with hesperetin and/or TNF-α. Co-cultured cells were washed three times with PBS and then images of monocytes adhering to BAECs were obtained with an Olympus IX81 inverted microscope with attached CCD camera (Retiga Exi, Burnaby, BC, Canada) using appropriate filters. Images were captured using IPLab™ Software (Scanalytics, Inc., Fairfax, Va.).

[5] = system: VCAM-1 expression in BAEC; test: TNF-α-stimulated VCAM-1 expression by immunoblotting; type: cell-based, bovine; conditions: 5 hours
Protocol: FIG. 5A is a digital image showing vascular cell adhesion molecule-1 (VCAM-1) expression by immunoblotting. BAECs were serum-starved overnight and then treated without or with TNF-α (10 ng/ml, 5 hours). In some groups, cells were pre-treated with hesperetin (10 μM, 1 hour) prior to treatment with TNF-α. Cell lysates were immunoblotted using antibodies against VCAM-1 or β-actin. Representative immunoblots are shown for experiments that were repeated independently four times. BAECs were grown in 60 mm dishes, serum-starved overnight, and then treated with hesperetin (10 μM) for varying durations or for 10 minutes at different concentrations. In some experiments, Wortmannin (100 nM), or Compound C (5 μM) was added to cells 1 hour before treating with hesperetin. Cell lysates were prepared using 120 μl of lysis buffer (100 mM NaCl, 20 mM Hepes, pH 7.9, 1% Triton X-100, 1 mM Na3VO4, 4 mM sodium pyrophosphate, 10 mM EDTA, 1 mM phenylmethylsulfonyl fluoride, 10 mM NaF, and complete protease inhibitor cocktail (Roche Applied Sciences, Indianapolis, Ind.)). […] Immunoblots were quantified by scanning densitometry (GE Healthcare).

[6] = hesperetin 10 μM, 1 hour before TNF-α 10 ng/ml
[7] = BAEC serum-starved overnight, hesperetin 10 min at varying concentrations or 10 μM for varying durations

COC(=O)[C@@H](N)CCCNC(=N)N[N+](=O)[O-] [L-NAME, L-N^G-Nitroarginine methyl ester]
NO production in response to hesperetin after inhibitor pre-treatment ([1]; hesperetin 10 μM): blocked | NO production in response to insulin after inhibitor pre-treatment [1]: blocked

CC(C)(C)n1nc(-c2ccc(Cl)cc2)c2c(N)ncnc21 [PP2]
hesperetin-stimulated phosphorylation of Src, Akt, and eNOS after PP2 pre-treatment ([2]; PP2 1 μM, 1 hour, hesperetin 10 μM, 10 min): inhibited | NO production in response to hesperetin after inhibitor pre-treatment ([1]; hesperetin 10 μM): inhibited | NO production in response to insulin after inhibitor pre-treatment [1]: failed to inhibit

CC(=O)N[C@@H](CS)C(=O)O [N-acetylcysteine, reference compound]
hesperetin and naringenin-stimulated phosphorylation of Src (Tyr418), Akt (Ser473), and eNOS (Ser1179) after NAC pre-treatment ([2]; NAC 10 mM, 2 hours, flavanone 10 μM, 10 min): inhibited | production of ROS after NAC pre-treatment ([3]; NAC 10 mM, 2 hours before loading): scavenged

COc1ccc([C@@H]2CC(=O)c3c(O)cc(O)cc3O2)cc1O [hesperetin]
TNF-α-stimulated adhesion of monocytes to endothelial cells after hesperetin pre-treatment [4, 6]: substantially reduced | cellular levels of phosphorylated AMPK (Thr172) [2, 7]: Significant concentration-dependent effects; also recorded: acutely increased; also recorded: Significant time-dependent effects | cellular levels of phosphorylated Akt (Ser473) [2, 7]: Significant concentration-dependent effects; also recorded: acutely increased; also recorded: Significant time-dependent effects | phospho-eNOS (Ser1179) [2, 7]: Significant concentration-dependent effects; also recorded: increased; also recorded: Significant time-dependent effects | hesperetin-stimulated NO production in BAEC ([1]; DAF-2 DA, 10 min at varying concentrations or 10 μM for varying durations): concentration- and time-dependent increase | time of peak production of NO ([1]; hesperetin 10 μM, BAEC): 5 to 10 min | production of ROS in BAEC [3]: stimulated | TNF-α-stimulated expression of VCAM-1 after hesperetin pre-treatment [5, 6]: substantially reduced

TNF-α
adhesion of labeled monocytes vs vehicle-treated control cells ([4]; TNF-α 10 ng/ml): corresponding increase | expression of VCAM-1 vs vehicle-treated control cells ([5]; TNF-α 10 ng/ml): increased

c1cc(-c2cnn3cc(-c4ccc(OCCN5CCCCC5)cc4)cnc23)ccn1 [Compound C]
NO production in response to hesperetin after inhibitor pre-treatment ([1]; hesperetin 10 μM): substantially inhibited

O=C1C[C@@H](c2ccc(O)cc2)Oc2cc(O)cc(O)c21 [naringenin]
production of ROS in BAEC [3]: stimulated
